# From patent publication US10221163B2 (priority 2015, dated 2019)
# Assays:
# IMP-1 = IMP-1 (Serratia marcescens, UniProt P52699); test: biochemical; assay type: biochemical; conditions: fluorescence assay, CCF2-FA substrate, 2 pM enzyme, 2 hours at 25° C.; read-out: IMP-1 IC50
# Experimental: (§1) Enzyme Activity: Determination of IC50
# (§2) The Class B enzyme activities were measured in the presence of the test inhibitor in a fluorescence assay against a commercially available substrate consisting of a cephalosporin core linking 7-hydroxycoumarin to fluorescein (CCF2-FA). […] In a 384-well microplate, the test inhibitor was incubated with the metallo-β-lactamase enzyme and the substrate for 2 hours at 25° C. […] The IC50 value was determined from semi-logarithmic plots of enzyme inhibition versus inhibitor concentration, with a curve generated using a 4-parameter fit.
# NDM-1 = NDM-1 (Klebsiella pneumoniae, UniProt C7C422); test: biochemical; assay type: biochemical; conditions: fluorescence assay, CCF2-FA substrate, 1 pM enzyme, 2 hours at 25° C.; read-out: NDM-1 IC50
# Chain of NDM-1 (C7C422 whole entry, looked up, species assumed): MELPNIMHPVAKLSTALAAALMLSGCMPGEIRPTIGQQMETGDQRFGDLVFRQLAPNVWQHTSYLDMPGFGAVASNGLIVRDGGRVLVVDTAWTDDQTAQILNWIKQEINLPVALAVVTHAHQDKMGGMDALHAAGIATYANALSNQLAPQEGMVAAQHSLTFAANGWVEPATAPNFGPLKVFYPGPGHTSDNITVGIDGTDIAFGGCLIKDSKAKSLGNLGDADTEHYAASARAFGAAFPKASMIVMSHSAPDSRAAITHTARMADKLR
# Experimental: as §1, §2
# [1] = tested on: Klebsiella pneumoniae expressing VIM-1 (IHMA599644); assay type: cell-based; conditions: for Klebsiella pneumoniae MITC95: VIM-1 strain IHMA599644, with imipenem 1 μg/ml, 95% inhibition of growth
# Experimental: (§3) Antibiotic Potentiation Activity: Determination of Synergistic Concentration
# (§4) The bacterial strains tested included the clinical strains Escherichia coli expressing NDM-1 (CLB30005, CLB30016), Serratia marcescens expressing IMP-1 (CL5741), and Klebsiella pneumoniae expressing VIM-1 (IHMA599644). Inhibitor activity was measured in the presence and absence of imipenem in a 384-well microplate.
# (§5) The clinical strains CLB30016, CL5741 and IHMA599644 were grown on trypticase soy agar containing 5% sheep's blood. The bacteria on agar plates were incubated at 35° C. with humidity overnight. The following day, individual colonies from each clinical strain were picked and resuspended in 5 ml saline to attain an OD600 of […], for CLB30016, CL5741 and IHMA599644, respectively. These were further diluted 1:100 into 1.1×CAMHB and used to inoculate the test wells as described below.
# (§6) Imipenem in 10 mM 3-(N-morpholino)propanesulfonic acid (MOPS, pH 7) was stored in single use aliquots at −80° C. […] On the day of the assay, 4 μl of antibiotic was added to 45 ul of bacteria followed by 1 μl of test compound and mixed by pipetting and with an orbital shaker. The concentration of antibiotic used in the assay was 1 μg/ml. Microplates were covered and incubated at 35° C. for 22 hours to 24 hours. At the end of the incubation, absorbance was determined using a spectrophotometer.
# [2] = tested on: Escherichia coli expressing NDM-1 (CLB30005, CLB30016); assay type: cell-based; conditions: with imipenem 1 μg/ml; for Escherichia coli MITC95: NDM-1 strain, 95% inhibition of growth
# Experimental: as §3, §4, §5, §6
# [3] = tested on: Serratia marcescens expressing IMP-1 (CL5741); assay type: cell-based; conditions: for Serratia marcescens MITC95: IMP-1 strain CL5741, with imipenem 1 μg/ml, 95% inhibition of growth
# Experimental: as §3, §4, §5, §6
# [4] = tested on: Pseudomonas aeruginosa efflux+ (MB9798), IMP-1; assay type: cell-based; set-up: Concentration of metallo-β-lactamase inhibitor which restores susceptibility of efflux + (MB9798) strain to imipenem: unit not given here; conditions: C, D serine β-lactamase inhibitor closely related to relebactam; for P. aeruginosa expressing IMP-1, efflux + (MB9798) MITC95: concentration restoring susceptibility to imipenem at 2 μg/mL in the presence of a class A; for Concentration of metallo-β-lactamase inhibitor which restores susceptibility of efflux + (MB9798) strain to imipenem: imipenem at 2 μg/mL, in the presence of a class A
# Excerpt: (§7) The strain background was Pseudomonas aeruginosa PAO1.
# (§8) The strain set was then used as a pair to determine the effect of metallo-β-lactamase inhibitors of Formula I on the MIC of imipenem and/or ceftazidime. A fixed concentration of antibiotic was included in standard microbroth MIC tests, usually at the CLSI (Clinical and Laboratory Standards Institute) breakpoint concentration. A fixed amount of a class A/C beta-lactamase inhibitor was also included to inhibit the resident Pseudomonas AmpC enzyme. A serial titration of the metallo-β-lactamase inhibitor was included and the concentration of metallo-β-lactamase inhibitor which restores susceptibility of the strain to the included antibiotic was recorded. That concentration of metallo-β-lactamase inhibitor was then compared between the two strains to determine the fold difference between the efflux+ (MB9798) and efflux− (MB9799) strains. This was taken as an indication of the extent to which the MBLi is subject to efflux.
# [5] = tested on: Pseudomonas aeruginosa efflux− (MB9799), IMP-1; assay type: cell-based; conditions: C, D serine β-lactamase inhibitor closely related to relebactam; for P. aeruginosa expressing IMP-1, efflux − (MB9799) MITC95: concentration restoring susceptibility to imipenem at 2 μg/mL in the presence of a class A; for Concentration of metallo-β-lactamase inhibitor which restores susceptibility of efflux − (MB9799) strain to imipenem: imipenem at 2 μg/mL, in the presence of a class A
# Excerpt: as §7, §8
# [6] = with imipenem 1 μg/ml, 95% inhibition of bacterial growth
# Chain of IMP-1 (P52699 whole entry, looked up, species assumed): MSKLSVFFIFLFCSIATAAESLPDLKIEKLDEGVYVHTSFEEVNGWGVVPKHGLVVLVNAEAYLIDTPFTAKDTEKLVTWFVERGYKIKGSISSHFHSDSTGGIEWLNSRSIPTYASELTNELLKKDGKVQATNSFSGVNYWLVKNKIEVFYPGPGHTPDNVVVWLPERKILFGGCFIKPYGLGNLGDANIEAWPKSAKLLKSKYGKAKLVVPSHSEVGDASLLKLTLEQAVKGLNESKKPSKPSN
Structure (SMILES),IC50 (IMP-1) [nM],IC50 (NDM-1) [nM],"Klebsiella pneumoniae expressing VIM-1 (IHMA599644) MITC95 [1, 6] [µM]",Escherichia coli expressing NDM-1 (CLB30016) MITC95 ([2]; 95% inhibition of bacterial growth) [µM],"Serratia marcescens expressing IMP-1 (CL5741) MITC95 [3, 6] [µM]","P. aeruginosa expressing IMP-1, efflux + (MB9798) MITC95 [4] [µM]","P. aeruginosa expressing IMP-1, efflux − (MB9799) MITC95 [5] [µM]",Klebsiella pneumoniae MITC95 [1] [µM],Escherichia coli MITC95 [2] [µM],Serratia marcescens MITC95 [3] [µM],Concentration of metallo-β-lactamase inhibitor which restores susceptibility of efflux + (MB9798) strain to imipenem [4],Concentration of metallo-β-lactamase inhibitor which restores susceptibility of efflux − (MB9799) strain to imipenem [5]
"NCCNS(=O)(=O)c1ccc(-c2cccc(-c3nc[nH]n3)c2)c(-c2nn[nH]n2)c1S(N)(=O)=O [Example 224, N^4-(2-aminoethyl)-2-(2H-tetrazol-5-yl)-3′-(1H-1,2,4-triazol-3-yl)-[1,1′-biphenyl]-3,4-disulfonamide]",0.412,0.142,3.125,1.563,1.563,1.563,0.7813,,,,,
"C[N+]1(CCN)CC[C@@H](NS(=O)(=O)c2ccc(-c3cccc4[nH]c(N)nc34)c(-c3nn[nH]n3)c2S(N)(=O)=O)C1.O=CO[O-] (stereo partly drawn) [Example 248, (3R)-3-{[4-(2-amino-1H-1,3-benzodiazol-4-yl)-2-sulfamoyl-3-(2H-1,2,3,4-tetrazol-5-yl)benzene]sulfonamido}-1-(2-aminoethyl)-1-methylpyrrolidin-1-ium; methaneperoxoate]",0.147,0.0105,,,,0.7813,0.7813,0.7813,0.3906,1.563,,
"NCC(=O)NC1C=C(c2ccc(S(=O)(=O)N[C@@H]3CCNC3)c(S(N)(=O)=O)c2-c2nn[nH]n2)CCC1 (stereo partly drawn) [Example 269, 2-Amino-N-(4′-(N—((R)-pyrrolidin-3-yl)sulfamoyl)-3′-sulfamoyl-2′-(2H-tetrazol-5-yl)-3,4,5,6-tetrahydro-[1,1′-biphenyl]-3-yl)acetamide]",4.03,1.17,,,,3.125,1.563,3.125,1.563,1.563,,
"Cn1nnc2c(-c3ccc(S(=O)(=O)N[C@H]4CCNC4)c(S(N)(=O)=O)c3-c3nn[nH]n3)cccc21 [Example 293, (S)-4-(1-methyl-1H-benzo[d][1,2,3]triazol-4-yl)-N1-(pyrrolidin-3-yl)-3-(2H-tetrazol-5-yl)benzene-1,2-disulfonamide]",1.3,0.285,,,,3.125,1.563,3.125,3.125,3.125,,
"NC[C@H](N)CNS(=O)(=O)c1ccc(-c2cccn3ccnc23)c(-c2nn[nH]n2)c1S(N)(=O)=O [Example 374, (S)-N1-(2,3-diaminopropyl)-4-(imidazo[1,2-a]pyridin-8-yl)-3-(2H-tetrazol-5-yl)benzene-1,2-disulfonamide]",0.278,0.157,,,,1.563,1.563,6.25,0.7813,3.125,,
"Nc1nc2c(-c3ccc(S(=O)(=O)NCC4(O)CNC4)c(S(N)(=O)=O)c3-c3nn[nH]n3)cccc2s1 [Example 387, 4-(2-amino-1,3-benzothiazol-4-yl)-N^1-[(3-hydroxyazetidin-3-yl)methyl]-3-(2H-tetrazol-5-yl)benzene-1,2-disulfonamide]",0.244,0.0646,,,,0.7813,1.563,6.25,1.563,1.563,,
"C[N+](C)(C)CCCNS(=O)(=O)c1ccc(-c2cccc3sc(N)nc23)c(-c2nnn[nH]2)c1S(N)(=O)=O.O=C([O-])C(F)(F)F [Example 392, 3-({[4-(2-amino-1,3-benzothiazol-4-yl)-2-sulfamoyl-3-(1H-tetrazol-5-yl)phenyl]sulfonyl}amino)-N,N,N-trimethylpropan-1-aminium trifluoroacetate]",0.221,0.0318,,,,,,12.5,3.125,3.125,1.563,3.125
C[C@H](CN)NS(=O)(=O)c1ccc(-c2cc(F)cc3[nH]c(N)nc23)c(-c2nn[nH]n2)c1S(N)(=O)=O [Example 396],0.221,0.0269,,,,,,3.125,0.7813,0.3906,0.7813,1.563
C[C@@H](CN)NS(=O)(=O)c1ccc(-c2cc(F)cc3[nH]c(N)nc23)c(-c2nn[nH]n2)c1S(N)(=O)=O [Example 397],1.6,0.161,,,,,,3.125,3.125,0.7813,1.563,1.563
Nc1nc2c(-c3ccc(S(=O)(=O)N[C@H]4CCNC4)c(S(N)(=O)=O)c3-c3nn[nH]n3)cc(F)cc2[nH]1 [Example 399],0.533,0.0822,,,,,,1.563,0.7813,1.563,0.7813,0.7813
NC[C@@H](O)CNS(=O)(=O)c1ccc(-c2ccnc(N)c2)c(-c2nn[nH]n2)c1S(N)(=O)=O [Example 419],1.51,0.496,,,,,,1.563,0.1953,0.7813,1.563,0.7813
C[C@H](N)CNS(=O)(=O)c1ccc(-c2ccnc(N)c2)c(-c2nn[nH]n2)c1S(N)(=O)=O [Example 421],1.14,0.196,,,,,,1.563,0.3906,0.7813,1.563,0.7813
C[C@@H](N)CNS(=O)(=O)c1ccc(-c2ccnc(N)c2)c(-c2nn[nH]n2)c1S(N)(=O)=O [Example 422],0.982,0.386,,,,,,1.563,0.3906,0.7813,1.563,0.7813
